Source: patent publication US12091394B2, “Crystal modifications of odevixibat” (Albireo AB, priority 2018, dated 2024)

Experiments:
[1] = Stability testing: storage in a closed container under air at 80° C., odevixibat content by HPLC; format: physicochemical; details: for Odevixibat content (%): closed container under air at 80° C., HPLC
Protocol: Analyses were performed on an Agilent, Series 1100, equipped with an Agilent 1260 Infinity degasser. Column: Waters XSelcet CHS C18 (150×3 mm, 3.5 μm); Mobile phase A: 0.1% formic acid in water, mobile phase B: 0.1% formic acid in acetonitrile; Gradient 45% to 90% B; flow rate 0.425 mL/min; Acquisition time 35 minutes; Run time 42 minutes; Wave length: 283 nm; Column temperature 20° C. The Chromeleon Version 6.8 software was used.
Samples of amorphous odevixibat (purity ˜91%) and of crystal modification 1 of odevixibat (purity>99%; crystallinity 100%) were stored in a closed container under air at 80° C. The amount of odevixibat in the samples was determined by HPLC at the beginning of the experiment, and was again determined after 1, 2 and 4 weeks.

[2] = Dynamic vapour sorption (DVS) water uptake of crystal modification 1; format: physicochemical
Protocol: DVS measurements were performed with an SPS11-100n “Sorptions Prüfsystem” from ProUmid (formerly “Projekt Messtechnik”), August-Nagel-Str. 23, 89079 Ulm (Germany). About 20 mg of sample was used. Humidity change rates of 5% per hour were used. The sample was placed on an aluminum or platinum holder on top of a microbalance and allowed to equilibrate at 0% RH before starting the pre-defined humidity program: • (1) 5 h at 0% RH • (2) 0→95% RH (5%/h); 5 h at 95% RH • (3) 95→0% RH (5%/h); 5 h at 0% RH • (4) 0→95% RH (5%/h); 5 h at 95% RH • (5) 95→0% RH (5%/h); 5 h at 0% RH High-Performance Liquid Chromatography (HPLC) The water uptake of crystal modification 1 was measured using dynamic vapour sorption (DVS). […] After drying the sample at 0% RH and increasing the relative humidity, most of the water was taken back up to about 25% RH. This corresponds to a water content of about 3.5% (w/w). An additional 1.5% (w/w) of water was then taken up when the humidity was increased up to 95% RH. […] Crystal modification 1 therefore seems to require about 3.5% (w/w) of water, which corresponds to a sesquihydrate.

[3] = 0 weeks (beginning of the experiment)
[4] = after 4 weeks of storage at 80° C. under air

Compound: CCCCC1(CCCC)CN(c2ccccc2)c2cc(SC)c(OCC(=O)N[C@@H](C(=O)N[C@@H](CC)C(=O)O)c3ccc(O)cc3)cc2S(=O)(=O)N1 [crystal modification 1, 1,1-dioxo-3,3-dibutyl-5-phenyl-7-methylthio-8-(N—{(R)-α-[N—((S)-1-carboxypropyl)carbamoyl]-4-hydroxybenzyl}carbamoylmethoxy)-2,3,4,5-tetrahydro-1,2,5-benzothiadiazepine]
- Odevixibat content (%) [1, 3]: 99.13%
- Odevixibat content (%) ([1]; 1 week): 99.15%
- Odevixibat content (%) ([1]; 2 weeks): 99.18%
- Odevixibat content (%) ([1]; 4 weeks): 99.24%
- change of purity [1, 4]: had not changed
- hygroscopicity ([2]; DVS, conclusion in words): slightly hygroscopic
- water content ([2]; after drying at 0% RH, water taken back up to about 25% RH): about 3.5 % (w/w)
- maximum water uptake ([2]; at 95% RH, reversible): about 5.0 % (w/w)
- water content ([2]; at about 30% relative humidity, based on the total crystal weight): about 3.5 % (w/w)
- additional water uptake ([2]; humidity increased up to 95% RH (range 30-95% RH)): 1.5 % (w/w)

Compound: CCCCC1(CCCC)CN(c2ccccc2)c2cc(SC)c(OCC(=O)N[C@@H](C(=O)N[C@@H](CC)C(=O)O)c3ccc(O)cc3)cc2S(=O)(=O)N1 [Amorphous odevixibat, 1,1-dioxo-3,3-dibutyl-5-phenyl-7-methylthio-8-(N—{(R)-α-[N—((S)-1-carboxypropyl)carbamoyl]-4-hydroxybenzyl}carbamoylmethoxy)-2,3,4,5-tetrahydro-1,2,5-benzothiadiazepine, reference compound]
- Odevixibat content (%) [1, 3]: 91.1%
- Odevixibat content (%) ([1]; 1 week): 90.9%
- Odevixibat content (%) ([1]; 2 weeks): 91.04%
- Odevixibat content (%) ([1]; 4 weeks): 90.8%
- decomposition [1, 4]: 0.3%
